Laboratory results as given in paper PMC11259696, “Small molecule MarR modulators potentiate metronidazole antibiotic activity in aerobic E. coli by inducing activation by the nitroreductase NfsA” (The Journal of Biological Chemistry, 2024).
Converted amounts (≈) assume the structure as drawn.

Key:
[1] = test system: T1, E. coli ΔtolC; assay: microbe, parasite or virus in culture; design: resazurin microtiter MIC90 in CAMHB, aerobic, 2-fold dilutions, fluorescence; turnover below 10% of control; settings: Escherichia coli, 5 h; MIC90, antibiotic alone, aerobic; read-out: MIC90 against E. coli ∆tolC under aerobic conditions (µg/mL) / Alone
T1 construct: BW25113 ΔtolC efflux-deficient tolC deletion strain
Protocol: The MIC was determined using the colorimetric resazurin microtiter assay. Experiments were performed in 96-well plate format with a 100 μl final volume. Briefly, a suspension of an E. coli strain of interest was prepared in CAMHB (BD) at an A600 of 0.001. When required, boosters or arabinose were added to the suspension, and MTZ or NFZ antibiotics were tested in a concentration gradient through serial 2-fold dilutions. After 5 h of incubation at 37 °C, 10 μl of resazurin 12.5% was added to each well, and an additional incubation was carried out for 1.5 h. Fluorescence was measured using a Fluostar Optima BMG Labtech (Ex: 530 nm; Em: 590 nm). Values were converted to resazurin turnover based on minimal (no bacteria added to the medium) and maximal (no antibiotic added) fluorescence values. MIC90 values were determined when resaruzin turnover was ˂10% of control.

[2] = molecular target: T2, NfsA (Escherichia coli, UniProt P17117); assay: reduction by purified recombinant NfsA (2-electron reduction); format: biochemical
T2 construct: recombinant His-tagged NfsA (pET28, gene from BW25113)
T2 sequence (P17117 1-240): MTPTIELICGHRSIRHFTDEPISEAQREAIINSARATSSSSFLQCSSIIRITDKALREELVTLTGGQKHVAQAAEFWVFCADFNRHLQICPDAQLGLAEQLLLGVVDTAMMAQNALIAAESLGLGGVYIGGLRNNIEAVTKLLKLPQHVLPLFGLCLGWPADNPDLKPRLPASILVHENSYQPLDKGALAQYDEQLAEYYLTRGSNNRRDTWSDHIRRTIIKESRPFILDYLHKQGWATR

[3] = molecular target: T2, NfsA; assay: UHPLC-MS of NADPH consumption and NADP+ production by purified NfsA; format: biochemical
[4] = molecular target: T2, NfsA; assay: UHPLC-MS turnover by purified NfsA with NADPH consumption and GSH trapping; format: biochemical
[5] = test system: MarR (His-tagged) (Escherichia coli BW25113); assay: EMSA; settings: EMSA: His-MarR 5 uM preincubated with BDM76441 15 min 25 C, then 100 nM marO 15 min 25 C (10 ul); 6% DNA retardation gel, 0.5x TBE, 150 V 45 min; binding …
[6] = molecular target: T3, MarR (Escherichia coli, UniProt P27245); assay: thermal shift assay with Kd (ΔTm […] °C); EMSA release of marO DNA (EC50 […]); format: binding
T3 construct: recombinant His-tagged MarR (pET15b, gene from BW25113)

[7] = molecular target: T2, NfsA; assay: EPR detection of MTZ radical anion formed by purified NfsA (1-electron reduction); NADPH consumption by UHPLC-MS; format: biochemical

T3 sequence (P27245 whole entry): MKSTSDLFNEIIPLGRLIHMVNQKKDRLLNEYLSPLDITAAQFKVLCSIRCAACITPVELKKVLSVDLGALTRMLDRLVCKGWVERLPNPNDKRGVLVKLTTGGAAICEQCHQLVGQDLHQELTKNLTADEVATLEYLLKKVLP

Molecule	MIC90 [1]	also measured
Cc1ncc([N+](=O)[O-])n1C [Dimetridazole]	> 500 µg/mL	
O=[N+]([O-])c1cncn1CCN1CCOCC1 [Nimorazole]	> 500 µg/mL	
CC1=CC(=O)c2ccccc2C1=O [menadione]		reduction by purified recombinant NfsA (2-electron reduction) [2]: confirmed that NfsA could reduce both menadione (2-electron reduction) and ferrocyanide (1-electron reduction)
NC(=O)C1=CN([C@@H]2O[C@H](COP(=O)(O)OP(=O)(O)OC[C@H]3O[C@@H](n4cnc5c(N)ncnc54)[C@H](OP(=O)(O)O)[C@@H]3O)[C@@H](O)[C@H]2O)C=CC1 [NADPH]		UHPLC-MS of NADPH consumption and NADP+ production by purified NfsA [3]: rapid biotransformation of NFZ accompanied by a conversion of NADPH to NADP+ as measured by UHPLC-MS analysis
Cc1ncc([N+](=O)[O-])n1CC(C)O (centres unmarked) [Secnidazole]	> 500 µg/mL	
NC(=O)N/N=C/c1ccc([N+](=O)[O-])o1 [NFZ, nitrofurazone]	15.6 µg/mL (≈ 78.7 µM)	UHPLC-MS turnover by purified NfsA with NADPH consumption and GSH trapping [4]: with purified recombinant NfsA, we observed a rapid biotransformation of NFZ accompanied by a conversion of NADPH to NADP+
marO (marRAB promoter PCR fragment)		IC50 [5]: 38 µM
Cc1ncc([N+](=O)[O-])n1CC(O)CCl (centres unmarked) [Ornidazole]	> 500 µg/mL	
O=C(Nc1ccc(I)cc1C(=O)O)c1cccs1 [BDM76441]		Kd [6]: 9.8 ± 1.6 µM
O=C(Cn1ccnc1[N+](=O)[O-])NCc1ccccc1 [Benznidazole]	62.5 µg/mL (≈ 240 µM)	
Cc1ncc([N+](=O)[O-])n1CCCO [Ternidazole]	> 500 µg/mL	
Cc1ncc([N+](=O)[O-])n1CCO [MTZ, metronidazole]	> 500 µg/mL	EPR detection of MTZ radical anion formed by purified NfsA (1-electron reduction) [7]: these results confirmed the formation of MTZ radical anions by NfsA under aerobic conditions
